Test results reported in PMC5034901, “Development & automation of a novel [^18F]F prosthetic group, 2-[^18F]-fluoro-3-pyridinecarboxaldehyde, and its application to an amino(oxy)-functionalised Aβ peptide” (Applied Radiation and Isotopes, 2016).

Experiment: Pre-clinical PET biodistribution
Format: in vivo
Settings: Wistar rats, radiolabel carried on [18F]RI-OR2-TAT
Method: Wistar rats (n =3) were anaesthetised using isoflurane (induction 4% and maintained 1.5%) in 70% N2O and 30% O2 mixture. […] All scans were carried out using a Siemens Inveon® PET-CT scanner. The acquisition protocol parameters consisted of a preliminary CT scan to attain attenuation correction factors followed by a 1 h PET acquisition with time coincidence window of 3.432 ns and levels of energy discrimination set between 350 keV and 650 keV. Images were reconstructed and analysed as described elsewhere ([Boutin et al., 2015]).

stability to defluorination (bone uptake of radioactivity): relatively little bone uptake
SMILES: O=Cc1cccnc1[18F] [[^18F]FPCA, 2-[^18F]-Fluoro-3-pyridinecarboxaldehyde]
